Source: paper PMC9629815, “MK256 is a novel CDK8 inhibitor with potent antitumor activity in AML through downregulation of the STAT pathway” (Oncotarget, 2022)

Assays:
[1] = tested on: CD34+/CD38- AML TEX cells; test: Flow cytometry of differentiation/maturation markers; assay type: cell-based, human
Method: […] novel human leukemic cell line (TEX) cells were plated on 100 mm culture dishes at 5 × 10^5 per well, starved with medium containing IMDM supplemented with 1.5%FCS, 2 ng/ml SCF, and 0.2 ng/ml IL-3 (Amgen, Thousand Oaks, CA, USA) overnight. […] Media with tested drugs was replaced on the third day. Following the 6-day treatments, cultures were washed once in Sort buffer (PBS + 2% FBS + 2 mM EDTA), and resuspended to a final concentration of 50 million cells/mL into a 96-well V-shaped plate. Cells were subsequently incubated with Zombie Aqua Fixable Viability Dye (Thermo), washed with Sort buffer, and incubated with Human FcX (BioLegend) to prevent non-specific antibody binding. Following FcX incubation, cells were washed with Sort buffer and incubated with cell surface antibody mix diluted in the BV stain buffer (BD Biosciences) following manufacturer instructions for 30 mins on ice in the dark. Cells were then washed with 100 mL Sort buffer and permeabilized in fresh Fix/Perm solution (Foxp3 Transcription Factor Staining Buffer from eBioscience) following the manufacturer’s instructions. Cell were subsequently incubated in intracellular stain mix in Perm Buffer (1 mL 10× Perm Buffer (eBiosceince) + 8.8 mL dH2O + 2% FCS) for 30 mins on ice in dark. Isotype controls were stained with mouse IgG conjugated to FITC, PE, PerCP-Cy5.5, PE-Cy7, APC, and Alexa Fluor™ 700. Antibodies used to stain cells were FITC-conjugated anti-CD93, PE-conjugated anti-CD96, PerCP-Cy5.5-conjugated anti-CD38, PE-Cy7-conjugated anti CD-34, APC-conjugated anti-CD117, and Alexa Fluor™ 700-conjugated LIVE/DEAD (Invitrogen). Stained samples were resuspended in Perm Buffer and run on a FACSAriaII Flow Cytometer (BD Biosciences). Data were analyzed in FACSDiva (BD Biosciences) and FlowJo (Treestar). To determine the absolute numbers of cells in samples analyzed by FACS, AccuCount beads (Spherotech) were added to stained samples prior to each FACS run per manufacturer’s instructions, and absolute cell counts were calculated based on the known number of beads added. In order to cellularly differentiate apoptosis in AML cells, MOLM14, as a result of synergetic treatments of MK256 combined with ABT199, we used Dead Cell Apoptosis Kits with Annexin V (Invitrogen). MOLM14 cells were plated on a 96-well V-shaped plate at 5x10^5 per well, starved with medium containing 99% RPMI 1640, 1% FBS, and 1X Antibiotic-Antimycotic (Invitrogen). MK256 were added to final concentrations of 13.7 nM, 41.2 nM, 123.5 nM, 370.4 nM, […] on each column, while ABT199 was at final concentrations of 0.2 nM, 0.5 nM, 4.1 nM, 12.3 nM, 37.0 nM on each row. Following 72-hr retreatment, cultures were washed once in Sort buffer (PBS + 2% FBS + 2 mM EDTA) and resuspended to a final concentration of 10^4 cells/well into a 96-well V-shaped plate. Cells were subsequently incubated with Alex Fluor™ 488 annexin V and PI for Flow Cytometry following manufacturer’s instructions.

[2] = tested on: p-STATs and MCL-1 in MV-4-11 cells; test: Western blot of STAT pathway in MV-4-11 cells; assay type: cell-based; conditions: 48 hrs
Method: For the in vitro western blot study, MV-4-11 and MOLM-14 cells were plated (6-well) at 5 × 10^5 cells per well with medium containing 1% FBS overnight. MK-256 was added in different concentrations at different time points. […] Total protein concentration was measured using the Pierce BCA protein Assay Kit (23227, Thermo Fisher Scientific). Proteins were separated on SDS-PAGE and transferred to Nitrocellulose membrane.

CYP3A4-TS = CYP3A4-TS (Homo sapiens, UniProt P08684); test: Cytochrome P450 inhibition assay; assay type: in vitro ADME; conditions: 50 uM
In vivo mouse PK study = test: In vivo mouse PK study; set-up: species or system mice; conditions: plasma
Method: Mice were dosed with either 1 mg/ml (IV) at a dose of 3 mg/kg or 3 mg/ml (PO) at a dose of 30 mg/kg in 40% PEG400 + 60% (30% Solutol) (final pH ~ 7). Blood samples were drawn at 5 mins, 15 mins, 30 mins, 1 hr, 2 hrs, 4 hrs, 8 hrs, and 24 hs from mice dosed with the IV route and at 1 hr, 4 hrs, 8 hrs and 24 hrs from mice dosed orally. An aliquot of 30 μL of plasma was extracted with 100 μL of 5:95 methanol:acetonitrile containing internal standard (Verapamil). The mixture was vortexed on a shaker for 15 minutes and subsequently centrifuged at 4000 rpm for 15 minutes. An aliquot of 70 μL of the supernatant was mixed with 70 μL water with 0.1% formic acid for the injection to the LC/MS/MS. Calibration standards were prepared by spiking MK256 into the blank mouse plasma. All samples are analyzed on LC/MS/MS using an AB Sciex API 4000 instrument, coupled to a Shimadzu LC-20AD LC Pump system.

[3] = IV 3 mg/kg or PO 30 mg/kg study, footnote 2 not given

CYP3A4-TS, sequence (P08684 whole entry): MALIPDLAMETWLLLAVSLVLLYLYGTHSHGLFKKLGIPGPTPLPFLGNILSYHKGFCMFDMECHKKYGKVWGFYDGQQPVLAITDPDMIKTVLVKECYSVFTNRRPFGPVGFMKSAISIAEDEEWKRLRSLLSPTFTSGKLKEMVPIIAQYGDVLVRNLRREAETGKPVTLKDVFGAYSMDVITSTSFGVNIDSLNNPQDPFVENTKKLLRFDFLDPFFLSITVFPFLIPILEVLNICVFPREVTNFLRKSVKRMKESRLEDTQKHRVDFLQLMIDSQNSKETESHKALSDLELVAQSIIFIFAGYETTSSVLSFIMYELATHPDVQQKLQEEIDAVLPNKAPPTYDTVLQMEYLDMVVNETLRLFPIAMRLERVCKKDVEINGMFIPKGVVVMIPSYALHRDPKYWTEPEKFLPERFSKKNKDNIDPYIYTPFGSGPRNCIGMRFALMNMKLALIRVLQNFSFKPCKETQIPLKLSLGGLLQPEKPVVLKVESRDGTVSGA

Nc1nccc2c(Br)cc3cc(C(=O)O)ccc3c12 [MK256]
differentiation of TEX cells ([1]; 50 nM): slightly induced the differentiation
decrease of CD93 relative to control ([1]; 50 nM, day 6): 6.5%
increase of CD117 population relative to control ([1]; 50 nM, day 6): 16.5%
reduction in CD34 compared to control cells ([1]; 50 nM, day 6): 13%
differentiation of TEX cells ([1]; 500 nM): much more effective
decrease of CD93 relative to control ([1]; 500 nM, day 6): approximately 30%
increase of CD117 population relative to control ([1]; 500 nM, day 6): 8.6%
reduction in CD34 compared to control cells ([1]; 500 nM, day 6): 28%
expression of CD96 with or without treatment ([1]; day 6): no difference
reduction of CD38 negativity ([1]; treated vs control (60% CD38-)): approximately 2 fold
expression levels of p-STAT1 (S727), p-STAT3(S727), p-STAT5(S726) ([2]; 30 nM to 1 uM): trend of reduction
expression of MCL-1 ([2]; 30 nM to 1 uM, dose-dependent): reduced expression
expression level of MCL-1, p-STAT3(S727) and p-STAT5(S726) ([2]; 1 uM): remained at minimal levels
expression level of p-STAT1(S727) ([2]; 1 uM): abrogated completely
expression levels of p-STAT1(Y701) and p-STAT5(Y694) ([2]; high concentrations): unaffected
cytochrome P450 inhibition (CYP3A4-TS): no inhibition
AUC(0-t) (In vivo mouse PK study; [3]): 330 µM·h
Cmax (In vivo mouse PK study; [3]): 29 µM
half-life (In vivo mouse PK study; [3]): 3.6 h
bioavailability (In vivo mouse PK study; PO 30 mg/kg vs IV 3 mg/kg): 59%
clearance (In vivo mouse PK study; intravenous, 3 mg/kg): 2.83 mL/min/kg
Vd (In vivo mouse PK study; intravenous, 3 mg/kg, read-out: Vss): 0.49 L/kg
